Test [1] concerns the target Peroxisome proliferator-activated receptor gamma/Nuclear receptor corepressor 2 (Homo sapiens, UniProt P37231+Q9Y618). Briefly: Counterscreen for NR2E3 inverse agonists: TR-FRET-based biochemical high throughput dose response assay to identify inverse agonists of the interaction between peroxisome proliferator-activated receptor gamma (PPARg) and nuclear receptor co-repressor 2 (NCOR2). The format is functional.

Test [2] addresses Photoreceptor-specific nuclear receptor (Homo sapiens, UniProt Q9Y5X4). Briefly: NR2E3 inverse agonists, dose response, biochemical, TR-FRET (AID 463256). The format is functional.
For test [3], the target named is Voltage-gated inwardly rectifying potassium channel KCNH2 (Homo sapiens, UniProt Q12809). Put plainly: hERG protection from proarrhythmic block, potency, dose response, cell-based, thallium flux (AID 2121). The format is ADME.
Another test has as its target T1, NADPH oxidase 1 (Homo sapiens, UniProt Q9Y5S8).
T1 sequence (Q9Y5S8 whole entry): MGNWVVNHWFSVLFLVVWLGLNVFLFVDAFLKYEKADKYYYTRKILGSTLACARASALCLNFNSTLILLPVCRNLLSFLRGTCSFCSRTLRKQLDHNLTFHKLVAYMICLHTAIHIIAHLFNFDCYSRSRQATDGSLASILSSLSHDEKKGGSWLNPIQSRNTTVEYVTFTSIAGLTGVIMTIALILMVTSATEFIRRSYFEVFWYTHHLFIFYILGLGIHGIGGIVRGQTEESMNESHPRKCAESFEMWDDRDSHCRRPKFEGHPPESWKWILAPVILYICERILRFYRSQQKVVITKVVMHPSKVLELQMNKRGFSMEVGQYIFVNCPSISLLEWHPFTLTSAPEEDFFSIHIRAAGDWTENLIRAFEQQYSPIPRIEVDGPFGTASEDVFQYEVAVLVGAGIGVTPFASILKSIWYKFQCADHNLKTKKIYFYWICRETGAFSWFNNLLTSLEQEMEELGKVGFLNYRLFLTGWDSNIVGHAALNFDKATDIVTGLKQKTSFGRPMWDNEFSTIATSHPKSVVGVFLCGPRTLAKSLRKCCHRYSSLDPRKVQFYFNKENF
Put plainly: Late-stage luminescence-based cell-based dose response assay to identify inhibitors of NADPH oxidase 1 (NOX1): Purchased analogs 2. The format is functional.

In test [4] the test system is Vero. Put plainly: West Nile virus antiviral activity, cell-based, CPE readout (AID 1621). The test is classed as functional. The conditions noted are these: Chlorocebus sabaeus.
Test [5] deals with T2, High affinity choline transporter 1 (Homo sapiens, UniProt Q9GZV3).
T2 sequence (Q9GZV3 whole entry): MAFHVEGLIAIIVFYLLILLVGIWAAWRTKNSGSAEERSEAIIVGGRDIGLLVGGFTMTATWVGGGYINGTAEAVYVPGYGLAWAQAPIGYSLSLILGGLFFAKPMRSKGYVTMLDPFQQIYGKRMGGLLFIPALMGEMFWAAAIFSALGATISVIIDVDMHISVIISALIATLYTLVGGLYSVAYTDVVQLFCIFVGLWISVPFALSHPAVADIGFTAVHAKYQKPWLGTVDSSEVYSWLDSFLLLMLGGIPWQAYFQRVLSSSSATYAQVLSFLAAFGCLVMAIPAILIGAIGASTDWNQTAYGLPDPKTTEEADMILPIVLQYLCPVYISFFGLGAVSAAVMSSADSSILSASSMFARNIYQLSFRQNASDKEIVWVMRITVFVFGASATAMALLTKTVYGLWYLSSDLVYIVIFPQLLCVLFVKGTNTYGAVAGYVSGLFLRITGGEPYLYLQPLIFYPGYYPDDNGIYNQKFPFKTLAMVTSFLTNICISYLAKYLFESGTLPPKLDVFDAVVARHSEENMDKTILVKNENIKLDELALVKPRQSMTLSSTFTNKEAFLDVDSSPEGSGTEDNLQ
Put plainly: CHT inhibitors, dose response, cell-based, 5-point CRC, membrane potential dye (AID 504840). The test is classed as functional.

The test system of test [6] is Vero. Put plainly: cells. The test is classed as functional, cell-based. The conditions noted are these: Chlorocebus sabaeus.
For test [7], the system named is Vero. Put plainly: cells. The conditions noted are these: Chlorocebus sabaeus. The test is classed as functional.
Test [8] has as its target T2, High affinity choline transporter 1. Put plainly: CHT inhibitors, dose response, cell-based, 10-point CRC, membrane potential dye (AID 588401).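 Further: membrane potential dye fluorescence of choline-evoked depolarization via CHT.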 The test is classed as functional.
Test [9] concerns the target Fructose-bisphosphate aldolase (Mycobacterium tuberculosis, UniProt P9WQA3). Put plainly: Fluorescence-based biochemical high throughput dose response assay for inhibitors of the fructose-bisphosphate aldolase (FBA) of M. tuberculosis. The test is classed as functional.
Test [10] has as its system BJ. Put plainly: cytotoxicity toward BJ-TERT fibroblasts, dose response, cell-based, RAS-independent, luminescence (AID 1933). The test is classed as functional. The conditions noted are these: Homo sapiens.
In test [11] the test system is BJ. Put plainly: cells. The test is classed as functional, cell-based. The conditions noted are these: Homo sapiens.
The nature of test [12]: Luminescence-based dose response cell-based high throughput screening assay for cytotoxic compounds using the IEC-6 intestinal epithelial cell line. [Related pubchem assays: 1858 (Summary AID.), 1825 (Counterscreen.), 1907 (Confirmation screen.)]. The test is classed as functional.
In test [13] the test system is BJ. Put plainly: cytotoxicity toward BJ-TERT-LT-ST fibroblasts, dose response, cell-based, RAS-independent, luminescence (AID 1935).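 Further: BJ fibroblasts immortalized with TERT plus LT and ST oncogenes.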 The test is classed as functional. The conditions noted are these: Homo sapiens.
A short description of test [14]: cytotoxicity toward DRD oncogenic fibroblasts, dose response, cell-based, non-viral oncogenic, luminescence (AID 1934). The conditions noted are these: Homo sapiens. The format is functional.
The target in test [15] is Luciferin 4-monooxygenase (Photinus pyralis, UniProt P08659). Put plainly: firefly luciferase enzyme inhibitors, dose response, biochemical, luminescence (AID 1891).
A short description of test [16]: Luminescence Cell-Based Dose Confirmation HTS to Identify Inhibitors of Platelet Dense Granule Release. [Related pubchem assays: 1663 (Primary HTS), 1678 (Summary of Project)]. The test is classed as functional.
The nature of test [17]: Fluorescence Cell-Based Dose Response to Identify Inhibitors of Thrombin Receptor-Activating Peptide SFLLRN-Mediated P-Selectin Induction on Platelets. [Related pubchem assays: 1663 (Primary HTS), 1889 (retest at dose ), 1891 (counterscreen), 1678 (Project Summary)]. The test is classed as functional. (In general: Counterscreens check selectivity or assay interference.)

For test [18], the target named is T3, Tyrosine-protein phosphatase non-receptor type 7 (Homo sapiens, UniProt P35236).
T3 sequence (P35236 whole entry): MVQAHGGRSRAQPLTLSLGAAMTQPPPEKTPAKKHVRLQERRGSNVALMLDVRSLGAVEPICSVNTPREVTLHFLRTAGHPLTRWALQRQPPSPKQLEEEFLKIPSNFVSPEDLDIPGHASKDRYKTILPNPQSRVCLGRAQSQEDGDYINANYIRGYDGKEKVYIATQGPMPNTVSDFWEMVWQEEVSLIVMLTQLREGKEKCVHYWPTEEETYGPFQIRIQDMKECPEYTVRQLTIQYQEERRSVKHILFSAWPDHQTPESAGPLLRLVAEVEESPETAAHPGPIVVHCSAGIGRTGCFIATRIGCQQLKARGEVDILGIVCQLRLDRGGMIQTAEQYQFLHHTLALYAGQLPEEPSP
Briefly: inhibitors of human HePTP phosphatase, […], biochemical, absorbance, leukemia target (AID 521). The format is functional.

In test [19] the target is Diphosphomevalonate decarboxylase (Streptococcus pneumoniae serotype 2 (strain D39 / NCTC 7466), UniProt Q9FD53). Put plainly: S. pneumoniae DPM-DC inhibition retest, confirmation, biochemical, cuvette format, coupled NADH fluorescence (AID 1028). The format is functional.
The target of another test is Genome polyprotein (Hepatitis C virus, UniProt Q2Q167). Briefly: HCV core protein dimerization inhibitors, dose response, biochemical, TR-FRET (AID 2159).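 Further: blocks dimerization of HCV core protein measured by TR-FRET between tagged core106 pairs.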 Also noted: species or system Hepacivirus hominis. (In TR-FRET formats the signal depends on donor and acceptor labels being close together.)
Test [20] deals with Protein-tyrosine kinase 2-beta (Homo sapiens, UniProt Q14289).
For another test, the target named is T4, Estrogen receptor (Homo sapiens, UniProt P03372).
T4 sequence (P03372 whole entry): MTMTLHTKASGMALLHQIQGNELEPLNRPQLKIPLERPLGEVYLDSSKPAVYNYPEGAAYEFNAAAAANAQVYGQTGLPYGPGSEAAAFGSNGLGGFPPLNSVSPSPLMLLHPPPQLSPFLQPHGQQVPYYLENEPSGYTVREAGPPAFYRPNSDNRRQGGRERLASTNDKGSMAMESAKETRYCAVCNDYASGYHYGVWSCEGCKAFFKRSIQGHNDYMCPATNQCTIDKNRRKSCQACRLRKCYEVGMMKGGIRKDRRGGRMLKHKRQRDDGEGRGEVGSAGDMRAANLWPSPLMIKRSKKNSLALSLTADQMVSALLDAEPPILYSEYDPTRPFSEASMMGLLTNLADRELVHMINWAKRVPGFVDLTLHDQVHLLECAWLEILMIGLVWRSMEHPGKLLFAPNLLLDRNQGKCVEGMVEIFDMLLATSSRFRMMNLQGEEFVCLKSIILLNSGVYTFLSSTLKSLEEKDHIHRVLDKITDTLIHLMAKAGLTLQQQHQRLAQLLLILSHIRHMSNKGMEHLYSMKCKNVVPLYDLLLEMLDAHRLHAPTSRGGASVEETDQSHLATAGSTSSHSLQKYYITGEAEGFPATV
Briefly: potentiators of ERα–SRC-1 coactivator binding, dose response, biochemical, TR-FRET, ERα LBD (AID 737).

Test [21] deals with Induced myeloid leukemia cell differentiation protein Mcl-1 (Homo sapiens, UniProt Q07820). Put plainly: MCL1-BIM BH3 interaction inhibitors, dose response, biochemical, fluorescence polarization, BIM-BH3 peptide, 1536-well (AID 2217).
Another test concerns the target Bcl-2-like protein 1 (Homo sapiens, UniProt Q07817). Put plainly: BCL-XL inhibitors, dose response, selectivity assay for MCL1 inhibitor project, biochemical, fluorescence polarization, 1536-well (AID 2218). (In fluorescence polarisation assays a small probe gives low polarisation when free and higher when bound to something large.)

Molecules are shown by their SMILES. Active and inactive are the calls of the source. A value given as a limit tells only on which side of the number the result lay.

Sequence of Protein-tyrosine kinase 2-beta (Q14289 whole entry): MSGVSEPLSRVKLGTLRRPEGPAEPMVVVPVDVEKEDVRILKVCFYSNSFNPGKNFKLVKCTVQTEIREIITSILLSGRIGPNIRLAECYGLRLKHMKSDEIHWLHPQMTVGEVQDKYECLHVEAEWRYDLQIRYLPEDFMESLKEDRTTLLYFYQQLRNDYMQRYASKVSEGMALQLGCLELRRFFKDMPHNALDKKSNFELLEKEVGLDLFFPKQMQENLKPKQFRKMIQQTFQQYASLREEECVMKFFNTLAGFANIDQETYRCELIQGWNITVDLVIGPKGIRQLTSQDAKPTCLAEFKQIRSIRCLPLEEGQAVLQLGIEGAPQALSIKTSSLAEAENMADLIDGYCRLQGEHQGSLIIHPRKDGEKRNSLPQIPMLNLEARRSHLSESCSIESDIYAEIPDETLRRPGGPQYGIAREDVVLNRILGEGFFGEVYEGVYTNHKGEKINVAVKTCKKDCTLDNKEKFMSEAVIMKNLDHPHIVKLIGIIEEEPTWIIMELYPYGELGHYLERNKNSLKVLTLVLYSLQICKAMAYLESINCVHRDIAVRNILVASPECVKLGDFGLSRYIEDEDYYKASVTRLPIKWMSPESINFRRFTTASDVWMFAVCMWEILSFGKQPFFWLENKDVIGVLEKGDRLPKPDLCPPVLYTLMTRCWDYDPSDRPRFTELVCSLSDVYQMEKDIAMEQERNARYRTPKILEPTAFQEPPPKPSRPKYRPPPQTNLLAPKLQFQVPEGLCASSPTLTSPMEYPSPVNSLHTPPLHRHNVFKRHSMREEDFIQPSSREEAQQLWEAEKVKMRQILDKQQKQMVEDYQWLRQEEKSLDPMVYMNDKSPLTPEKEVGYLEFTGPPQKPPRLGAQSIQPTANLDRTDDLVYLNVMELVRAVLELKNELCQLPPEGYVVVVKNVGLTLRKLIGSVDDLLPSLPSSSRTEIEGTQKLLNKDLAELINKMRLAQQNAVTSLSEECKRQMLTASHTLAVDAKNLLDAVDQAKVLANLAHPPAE
Sequence of Genome polyprotein (Q2Q167 whole entry): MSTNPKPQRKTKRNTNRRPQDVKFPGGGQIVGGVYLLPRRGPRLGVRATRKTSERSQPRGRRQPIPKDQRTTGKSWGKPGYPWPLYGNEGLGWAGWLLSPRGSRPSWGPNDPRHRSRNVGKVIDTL
Sequence of Voltage-gated inwardly rectifying potassium channel KCNH2 (Q12809 whole entry): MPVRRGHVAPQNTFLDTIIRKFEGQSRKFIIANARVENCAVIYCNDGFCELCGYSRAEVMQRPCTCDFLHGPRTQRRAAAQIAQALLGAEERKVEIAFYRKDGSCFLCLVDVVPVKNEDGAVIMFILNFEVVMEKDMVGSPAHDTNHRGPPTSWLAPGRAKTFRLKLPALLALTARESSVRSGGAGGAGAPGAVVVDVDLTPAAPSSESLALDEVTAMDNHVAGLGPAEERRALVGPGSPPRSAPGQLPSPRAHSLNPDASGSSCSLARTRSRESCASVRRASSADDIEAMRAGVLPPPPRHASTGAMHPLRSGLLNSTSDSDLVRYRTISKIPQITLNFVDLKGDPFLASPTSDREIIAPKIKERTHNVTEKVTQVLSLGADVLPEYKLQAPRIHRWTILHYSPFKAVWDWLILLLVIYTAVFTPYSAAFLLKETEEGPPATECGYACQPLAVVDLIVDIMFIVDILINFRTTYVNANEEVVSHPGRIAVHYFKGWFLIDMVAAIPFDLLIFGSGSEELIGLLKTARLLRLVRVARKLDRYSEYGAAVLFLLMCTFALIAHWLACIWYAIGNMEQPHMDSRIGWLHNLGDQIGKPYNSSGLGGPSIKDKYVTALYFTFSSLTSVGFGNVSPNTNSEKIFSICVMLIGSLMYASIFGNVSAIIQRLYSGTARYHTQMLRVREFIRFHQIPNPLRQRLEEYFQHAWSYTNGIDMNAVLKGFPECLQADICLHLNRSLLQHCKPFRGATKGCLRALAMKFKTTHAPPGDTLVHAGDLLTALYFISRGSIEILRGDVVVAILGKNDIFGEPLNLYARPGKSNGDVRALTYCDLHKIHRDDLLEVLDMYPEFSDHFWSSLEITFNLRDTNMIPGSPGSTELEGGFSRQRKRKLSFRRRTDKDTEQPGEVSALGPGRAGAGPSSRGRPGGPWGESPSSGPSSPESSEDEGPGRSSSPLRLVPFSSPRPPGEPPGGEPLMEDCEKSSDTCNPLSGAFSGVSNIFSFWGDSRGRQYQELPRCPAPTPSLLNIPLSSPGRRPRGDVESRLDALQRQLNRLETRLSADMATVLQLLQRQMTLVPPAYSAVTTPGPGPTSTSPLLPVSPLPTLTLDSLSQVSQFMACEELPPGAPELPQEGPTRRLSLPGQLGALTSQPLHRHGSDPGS
Sequence of Luciferin 4-monooxygenase (P08659 whole entry): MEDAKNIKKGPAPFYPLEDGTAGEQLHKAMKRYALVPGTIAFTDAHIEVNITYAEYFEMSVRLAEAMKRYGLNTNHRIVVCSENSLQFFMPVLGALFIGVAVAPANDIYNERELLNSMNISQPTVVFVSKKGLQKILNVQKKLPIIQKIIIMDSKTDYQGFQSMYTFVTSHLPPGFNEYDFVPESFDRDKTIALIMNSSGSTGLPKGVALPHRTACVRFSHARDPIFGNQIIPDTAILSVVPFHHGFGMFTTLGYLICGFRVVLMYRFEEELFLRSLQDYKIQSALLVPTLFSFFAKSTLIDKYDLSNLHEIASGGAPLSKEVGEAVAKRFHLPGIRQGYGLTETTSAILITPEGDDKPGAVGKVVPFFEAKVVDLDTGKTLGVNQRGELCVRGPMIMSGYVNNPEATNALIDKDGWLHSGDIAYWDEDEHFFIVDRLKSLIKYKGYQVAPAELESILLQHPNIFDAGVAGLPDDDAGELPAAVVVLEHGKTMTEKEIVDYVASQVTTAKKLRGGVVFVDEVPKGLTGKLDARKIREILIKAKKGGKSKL
Sequence of Induced myeloid leukemia cell differentiation protein Mcl-1 (Q07820 whole entry): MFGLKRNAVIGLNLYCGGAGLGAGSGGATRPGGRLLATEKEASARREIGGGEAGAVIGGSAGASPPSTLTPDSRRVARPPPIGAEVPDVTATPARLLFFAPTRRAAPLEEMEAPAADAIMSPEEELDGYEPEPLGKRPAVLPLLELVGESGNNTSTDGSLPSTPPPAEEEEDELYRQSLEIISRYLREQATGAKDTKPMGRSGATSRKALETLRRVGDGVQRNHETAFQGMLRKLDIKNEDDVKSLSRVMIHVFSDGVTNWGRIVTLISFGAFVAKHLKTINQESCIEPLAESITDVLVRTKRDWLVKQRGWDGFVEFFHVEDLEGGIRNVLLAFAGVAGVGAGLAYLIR
Sequence of Bcl-2-like protein 1 (Q07817 whole entry): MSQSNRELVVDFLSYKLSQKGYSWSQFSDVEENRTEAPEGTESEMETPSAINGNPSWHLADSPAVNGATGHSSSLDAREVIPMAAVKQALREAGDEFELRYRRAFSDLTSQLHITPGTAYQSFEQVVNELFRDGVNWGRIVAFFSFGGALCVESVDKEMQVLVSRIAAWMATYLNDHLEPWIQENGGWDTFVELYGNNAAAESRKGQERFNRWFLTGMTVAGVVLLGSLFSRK
Sequence of Photoreceptor-specific nuclear receptor (Q9Y5X4 whole entry): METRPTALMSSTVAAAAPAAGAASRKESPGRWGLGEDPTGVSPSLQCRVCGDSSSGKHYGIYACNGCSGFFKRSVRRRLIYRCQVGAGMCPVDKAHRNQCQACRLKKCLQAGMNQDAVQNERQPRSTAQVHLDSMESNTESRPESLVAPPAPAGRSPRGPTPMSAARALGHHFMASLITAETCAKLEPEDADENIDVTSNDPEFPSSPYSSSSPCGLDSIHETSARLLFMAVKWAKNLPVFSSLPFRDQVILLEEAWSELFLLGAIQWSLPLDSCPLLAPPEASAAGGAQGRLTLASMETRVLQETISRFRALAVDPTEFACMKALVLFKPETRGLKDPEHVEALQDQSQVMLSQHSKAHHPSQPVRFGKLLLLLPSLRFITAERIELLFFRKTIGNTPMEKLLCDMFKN
Sequence of Fructose-bisphosphate aldolase (P9WQA3 whole entry): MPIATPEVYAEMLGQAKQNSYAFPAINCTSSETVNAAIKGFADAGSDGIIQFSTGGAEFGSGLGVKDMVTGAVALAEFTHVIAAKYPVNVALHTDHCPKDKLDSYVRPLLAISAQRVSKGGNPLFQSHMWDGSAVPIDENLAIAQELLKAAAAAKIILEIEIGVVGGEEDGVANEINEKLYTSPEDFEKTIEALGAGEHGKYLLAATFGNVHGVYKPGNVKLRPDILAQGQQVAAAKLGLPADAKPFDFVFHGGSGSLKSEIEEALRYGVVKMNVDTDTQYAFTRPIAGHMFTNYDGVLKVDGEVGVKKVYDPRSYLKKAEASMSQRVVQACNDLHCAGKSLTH
Sequence of Diphosphomevalonate decarboxylase (Q9FD53 whole entry): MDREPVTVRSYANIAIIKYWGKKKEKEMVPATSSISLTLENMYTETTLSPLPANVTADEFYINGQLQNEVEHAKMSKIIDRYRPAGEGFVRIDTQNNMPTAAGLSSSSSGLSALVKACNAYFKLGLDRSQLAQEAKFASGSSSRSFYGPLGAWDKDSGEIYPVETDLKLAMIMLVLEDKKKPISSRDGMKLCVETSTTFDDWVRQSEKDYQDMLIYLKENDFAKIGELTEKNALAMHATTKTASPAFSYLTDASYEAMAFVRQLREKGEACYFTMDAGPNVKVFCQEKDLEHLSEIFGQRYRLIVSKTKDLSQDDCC

The IC50 is the midpoint of a concentration-inhibition curve. One may read the EC50 as the concentration needed to bring the measured effect to its halfway point. For the molecule `Cc1sc2ncnc(SCC(=O)NC(=O)c3cccn3C)c2c1C`, the IC50 in test [1] is 6.6 µM (active); in [2], 3.97 µM (active). Moreover, in test [3], the EC50 is 7.84 µM (active).
Turning to `C=C(NNc1c(Cl)c(Cl)nc(C(=O)O)c1Cl)c1ccc2cc(OC)ccc2c1`, the IC50 against NADPH oxidase 1 is given as > 17 µM (not active).
As usually defined, the CC50 is the concentration at which the toxic effect on the cells reaches its halfway point. `CN1CCN(CCNC(=O)c2ccc3nc(-c4ccc(F)cc4)c(-c4ccc(F)cc4)nc3c2)CC1`: the IC50 with Vero [4] was 21.7 µM (active); in test [5], 4.58 µM (active); in the test with Vero [6] it was > 25 µM (active); in [8] it was 1.58 µM (active); in test [9], > 1.11 µM (active). Besides, in the test with Vero [7], the CC50 was 16.9 µM (active).
For the molecule `CCCNc1nc(-c2ccccc2)c(C(=O)OCC)cc1C#N`, the EC50 with BJ [10] is 8.98 µM (inconclusive); in the test with BJ [11] it was 26 µM (active); with BJ [13], 4.54 µM (inconclusive); in test [14], 16.3 µM (active). In addition, in test [12], the IC50 is 4.2 µM (active).
In the case of `CCOc1ccc2[nH]c(NCCO)nc2c1`, the EC50 in test [15] was > 112 µM (not active); in test [16] it was 0.205 µM (active); in test [17] it was > 100 µM (not active).
With `O=C(Nc1ncnc2c1ncn2C1OC(COC(=O)c2ccccc2)C(F)C1O)c1ccccc1` (stereo not given), the IC50 in test [18] is listed as > 100 µM (not active).
For `CCCNC(=O)c1cccc(-n2sc3ccccc3c2=O)c1`, the IC50 in test [19] is 18.4 µM (active).
Regarding `Cc1ccc(S(=O)(=O)N2Cc3ccccc3CC2C(=O)Nc2ccc3c(c2)OCO3)cc1` (stereo not given), the IC50 at Genome polyprotein is on record as > 49.8 µM (not active).
With `O=C(Oc1ccc(-c2cnc3ccccc3n2)cc1)c1ccc(Br)o1`, the IC50 in test [20] is > 69.5 µM (not active). For the same molecule, the EC50 on Estrogen receptor was 6.97 µM (active).
For the molecule `O=C(O)C(C(=O)/C=C/c1ccco1)=C1SCCS1`, the results for the IC50 (in [21]; on Bcl-2-like protein 1) were 21.9 µM (not active) and > 109 µM (not active), respectively.

For the origin of these results see ChEMBL document CHEMBL1201862, “PubChem BioAssay data set” (2004).
